Experiments:
[1] = tested on: mice under cytotoxic hypoxia; settings: mouse, in vivo
[2] = tested on: cardiac ischemia/reperfusion in rats; assay: Experimental cardiac ischemia/reperfusion in rats; assay type: in vivo; settings: administered prior to ischemia/reperfusion
[3] = tested on: bacterial reverse mutation; assay: Standard bacterial reverse mutation assays
[4] = tested on: transient global cerebral ischemia in gerbils; assay: Neuroprotection from transient global cerebral ischemia in gerbils; assay type: in vivo, Mongolian gerbils; settings: 50 mg/kg intraperitoneally prior to surgery; two experiments
Procedure: Adult male Mongolian gerbils weighing 60-80 g were intraperitoneally administered 50 mg/kg of Compound 2 prior to surgery to induce transient global cerebral ischemia. The gerbils were operated under anesthesia with 2% halthane in a gas mixture of 70% N2O and 30% O2, followed by maintenance at 1% halothane to surgically expose and clamp the carotid arteries for 5 minutes to prevent the blood flow to the brain. After 5 minutes, the clamps were removed and reperfusion occurred. The gerbils were evaluated for motility and spontaneous alteration in a Y maze test essentially as described in Gupta and Sharma, Biol. Pharm. Bull. 29(5) 957-961 (2006), and were decapitated 4 days after reperfusion for histological evaluation for the neuronal survival in the hippocampal CA-1 area.

in vivo = settings: mouse
[5] = tested on: permanent middle cerebral artery occlusion (MCAO) in rats; assay: Functional recovery following permanent MCAO in rats (Example 1); assay type: in vivo, Sprague Dawley Rats; settings: for Infarct Volume (%): day 28 after permanent MCAO, percentage of intact contralateral hemispheric volume, mean ± S.E.M.
From the text: The purpose of this study was to evaluate the efficacy of arimoclomol and iroxanadine in enhancing neurological recovery in a model of permanent middle cerebral artery occlusion (MCAO) in rats. The permanent MCAO is a well accepted and considered to be a standard animal model for studying clinical aspects of stroke. (Stroke. 1999; 30:2752-2758.)
Forty male Sprague Dawley Rats, each weighing 300-400 g, which had been housed and handled for behavioral assessment for seven (7) days prior to surgery for acclimation purposes, were operated under anesthesia to create focal cerebral infarcts by permanent occlusion of the proximal right middle cerebral artery (MCA) according to modified Tamura model. Briefly, the rats were anesthetized with 2-3% halothane in the mixture of N2O:O2 (2:1), and were maintained with 1˜1.5% halothane in the mixture of N2O:O2 (2:1). The temporalis muscle was bisected and reflected through an incision made midway between the eye and the eardrum canal. The proximal MCA was exposed through a subtemporal craniectomy without removing the zygomatic arch and without transecting the facial nerve. […] Body temperature was maintained at 37.5° C.±0.5° C. throughout the entire procedure. Cefazolin (40 mg/kg; Baxter, Lot 06014.1, Exp. January 2009) was given i.p. one day before MCAO and just after MCAO to prevent infections.
The rats were randomly divided into 4 groups of 10 animals each. One group was given arimoclomol, p.o., starting at one hour after the occlusion at 200 mg/kg/d once daily for 3 days, then 50 mg/kg/d once daily for a total of 29 days. The second group was given iroxanadine using the same dosing regimen as for arimoclomol. The third group is a positive control group and is given intracistemally 1 μg (at 20 μg/ml, also containing 100 μg/ml of bovine serum albumin) beta-fibroblast growth factor (bFGF) one hour and one day (i.e. two administrations) after the occlusion. The fourth group is a negative control with administration of the vehicle only.
Animals were evaluated preoperation (day −1), then every 7 days after the operation (7, 14, 21, and 28 days) by forelimb and hindlimb placing tests and body swing test, which are widely accepted as standard tests indicative of functional recovery after a stroke model.
For the forelimb placing test, the examiner held the rat close to a tabletop and scored the rat's ability to place the forelimb on the tabletop in response to whisker, visual, tactile, or proprioceptive stimulation. Similarly, for the hindlimb placing test, the examiner assessed the rat's ability to place the hindlimb on the tabletop in response to tactile and proprioceptive stimulation. Separate sub-scores were obtained for each mode of sensory input (halfpoint designations possible), and added to give total scores (for the forelimb placing test: 0=normal, 12=maximally impaired; for the hindlimb placing test: 0=normal; 6=maximally impaired).
For the body swing test, the rat was held approximately one inch from the base of its tail. It was then elevated to an inch above a surface of a table. The rat was held in the vertical axis, defined as no more than […] to either the left or the right side. A swing was recorded whenever the rat moved its head out of the vertical axis to either side. The rat must return to the vertical position for the next swing to be counted. Thirty (30) total swings were counted. A normal rat typically has an equal number of swings to either side. Following focal ischemia, the rat tends to swing to the contralateral (left) side.
The behavior was evaluated by giving the score ranging in the parentheses after each test: • Forelimb placing test (0-12), consisting of whisker tactile placing (0-2); visual placing (forward, sideways) (0-4); tactile placing (dorsal, lateral) (0-4); and proprioceptive placing (0-2); • Hindlimb placing test (0-6), consisting of tactile placing (dorsal, lateral) (0-4); and proprioceptive placing (0-2). […]

[6] = treatment from 1 h after occlusion, up to 28 days

Row | Compound | survival time under cytotoxic hypoxia [1] | duration of ventricular arrhythmias [2] | overall survival [2] | mutagenicity [3] | neuroprotection (motility, Y maze, neuronal survival in hippocampal CA-1) compared to control group [4] | LD50 (in vivo) | Infarct Volume (%) [5] | Body Swing Test, recovery compared to vehicle group [5, 6] | Forelimb Placing Test, recovery compared to vehicle group [5, 6] | Hindlimb Placing Test, recovery compared to vehicle group [5, 6]
1 | CC(C)(C)NCC(O)CO/N=C(\Cl)c1cccc(C(F)(F)F)c1 (centres unmarked) [Compound 2, N-[3-(1,1-dimethylethyl)amino-2-hydroxypropoxy]-3-trifluoromethylbenzene-carboximidoyl chloride] | significantly increased | significantly decreased | increased | not to be mutagenic | neuroprotective effects | ~1000 mg/kg |  |  |  | 
2 | c1cncc(C2=NOCC(CN3CCCCC3)N2)c1 (centres unmarked) [iroxanadine, 5,6-dihydro-5(1-piperidinyl)-methyl-3-(3-pyridyl)-4H-1,2,4-oxadiazine] |  |  |  |  |  |  | 21.8 ± 2.1% |  |  | 
3 | bFGF: positive control, beta-fibroblast growth factor (bFGF) given intracisternally |  |  |  |  |  |  | 23.1 ± 1.7% | superior to the vehicle group | superior to the vehicle group | superior to the vehicle group
